Data as given in patent publication US12503471B2, “Triazatricycle compounds for the treatment of autoimmune disease” (Hoffmann-La Roche Inc., priority 2019, dated 2025).
pIC50: −log10 of the molar value.

What was measured:
human TLR7 = molecular target: T1, human TLR7 (Homo sapiens, UniProt Q9NYK1); experiment: HEK293-Blue-hTLR-7 cells assay; format: cell-based; settings: HEK293-Blue-hTLR7 cells, R848 stimulation, 20 hrs, SEAP reporter; read-out: HEK/hTLR7 IC50
T1 construct: host or cells: HEK293 (HEK-Blue hTLR7)
T1 sequence (Q9NYK1 27-1049): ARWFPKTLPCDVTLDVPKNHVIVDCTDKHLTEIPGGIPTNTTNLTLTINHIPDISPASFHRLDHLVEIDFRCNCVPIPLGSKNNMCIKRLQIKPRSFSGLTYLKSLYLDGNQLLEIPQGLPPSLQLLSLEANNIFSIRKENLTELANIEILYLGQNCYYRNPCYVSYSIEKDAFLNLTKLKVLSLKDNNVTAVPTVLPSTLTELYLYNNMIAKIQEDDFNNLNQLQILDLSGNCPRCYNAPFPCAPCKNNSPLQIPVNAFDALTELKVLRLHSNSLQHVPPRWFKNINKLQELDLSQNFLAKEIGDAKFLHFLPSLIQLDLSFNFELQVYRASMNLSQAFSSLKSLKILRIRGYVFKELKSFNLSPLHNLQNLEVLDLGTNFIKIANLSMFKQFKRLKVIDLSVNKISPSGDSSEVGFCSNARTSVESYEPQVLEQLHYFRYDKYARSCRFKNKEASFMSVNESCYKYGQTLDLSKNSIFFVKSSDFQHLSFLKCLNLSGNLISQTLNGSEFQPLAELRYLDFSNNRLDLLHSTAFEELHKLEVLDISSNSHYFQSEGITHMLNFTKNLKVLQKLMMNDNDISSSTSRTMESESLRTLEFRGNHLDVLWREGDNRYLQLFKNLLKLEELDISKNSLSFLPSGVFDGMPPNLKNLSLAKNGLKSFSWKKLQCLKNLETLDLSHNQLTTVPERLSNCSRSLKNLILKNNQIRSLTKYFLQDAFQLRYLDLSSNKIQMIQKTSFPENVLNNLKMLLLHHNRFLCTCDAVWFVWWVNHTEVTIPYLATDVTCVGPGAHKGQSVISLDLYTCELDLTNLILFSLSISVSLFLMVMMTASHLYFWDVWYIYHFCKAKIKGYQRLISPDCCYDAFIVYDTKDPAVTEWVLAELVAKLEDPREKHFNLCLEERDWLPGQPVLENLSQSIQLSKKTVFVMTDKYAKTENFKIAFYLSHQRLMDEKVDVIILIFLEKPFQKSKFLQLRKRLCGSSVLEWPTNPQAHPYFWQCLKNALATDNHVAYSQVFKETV
Text: HEK293-Blue-hTLR-7 Cells Assay:
A stable HEK293-Blue-hTLR-7 cell line was purchased from InvivoGen (Cat. #: hkb-htlr7, San Diego, Calif., USA). These cells were originally designed for studying the stimulation of human TLR7 by monitoring the activation of NF-κB. A SEAP (secreted embryonic alkaline phosphatase) reporter gene was placed under the control of the IFN-β minimal promoter fused to five NF-κB and AP-1-binding sites. The SEAP was induced by activating NF-κB and AP-1 via stimulating HEK-Blue hTLR7 cells with TLR7 ligands. Therefore the reporter expression was declined by TLR7 antagonist under the stimulation of a ligand, such as R848 (Resiquimod), for incubation of 20 hrs. The cell culture supernatant SEAP reporter activity was determined using QUANTI-Blue™ kit (Cat. #: rep-qbl, Invivogen, San Diego, Ca, USA) at a wavelength of 640 nm, a detection medium that turns purple or blue in the presence of alkaline phosphatase.
HEK293-Blue-hTLR7 cells were incubated at a density of 250,000˜450,000 cells/mL in a volume of 170 μL in a 96-well plate in Dulbecco's Modified Eagle's medium (DMEM) containing 4.5 g/L glucose, 50 U/mL penicillin, […], […], 2 mM L-glutamine, 10% (v/v) heat-inactivated fetal bovine serum with addition of 20 μL test compound in a serial dilution in the presence of final DMSO at 1% and 10 μL of 20 uM R848 in above DMEM, perform incubation under 37° C. in a CO2 incubator for 20 hrs. Then 20 μL of the supernatant from each well was incubated with 180 μL Quanti-blue substrate solution at 37° C. for 2 hrs and the absorbance was read at 620-655 nm using a spectrophotometer. The signaling pathway that TLR7 activation leads to downstream NF-κB activation has been widely accepted, and therefore similar reporter assay was modified for evaluating TLR7 antagonist.

[1] = Human microsomal stability assay; format: in vitro ADME; settings: human liver microsomes, 1 μM test compound, 0.5 mg/mL protein, 37° C., pH 7.4
Experimental: Human Microsomal Stability Assay
Human liver microsomes (Cat.NO.: 452117, Corning, USA) were preincubated with test compound for 10 minutes at 37° C. in 100 mM potassium phosphate buffer, pH 7.4. The reactions were initiated by adding NADPH regenerating system. The final incubation mixtures contained 1 μM test compound, 0.5 mg/mL liver microsomal protein, 1 mM MgCl2, 1 mM NADP, 1 unit/mL isocitric dehydrogenase and 6 mM isocitric acid in 100 mM potassium phosphate buffer, pH 7.4. After incubation times of 0, 3, 6, 9, 15 and 30 minutes at 37° C., 300 μL of cold ACN (including internal standard) was added to 100 μL incubation mixture to terminate the reaction. Following precipitation and centrifugation, 100 uL supernatant will be taken out and added 300 uL water. The amount of compound remaining in the samples was determined by LC-MS/MS. Controls of no NADPH regenerating system at zero and 30 minutes were also prepared and analyzed. The results were categorized as: low (7.0 mL/min/kg), medium (7.0-16.2 mL/min/kg) and high (16.2-23.2 mL/min/kg).

SMILES | pIC50 (human TLR7) | CL (h) [1] [mL/min/kg]
[2H]c1ccc2c(N3C[C@@H](C)N4Cc5nc(O[C@H]6CCNC6)ccc5[C@H]4C3)ccc(C#N)c2n1 [Example 25, 2-Deuterio-5-[(2S,6R)-6-methyl-11-[(3S)-pyrrolidin-3-yl]oxy-4,7,10-triazatricyclo[7.4.0.02,7]trideca-1(9),10,12-trien-4-yl]quinoline-8-carbonitrile] | 9.00 | 
[2H]c1ccc2c(N3C[C@@H](C)N4Cc5nc(N6CC[C@H](N)[C@H](OC)C6)ccc5[C@H]4C3)ccc(C#N)c2n1 [Example 13, 5-[(2S,6R)-11-[(3R,4S)-4-amino-3-methoxy-1-piperidyl]-6-methyl-4,7,10-triazatricyclo[7.4.0.02,7]trideca-1(9),10,12-trien-4-yl]-2-deuterio-quinoline-8-carbonitrile] | 8.77 | 9.4
[2H]c1ccc2c(N3C[C@@H](C)N4Cc5nc(N6CC[C@H](N)[C@@H](OC)C6)ccc5[C@H]4C3)ccc(C#N)c2n1 [Example 12, 5-[(2S,6R)-11-[(3S,4S)-4-amino-3-methoxy-1-piperidyl]-6-methyl-4,7,10-triazatricyclo[7.4.0.02,7]trideca-1(9),10,12-trien-4-yl]-2-deuterio-quinoline-8-carbonitrile] | 8.80 | 
[2H]c1ccc2c(N3C[C@@H](C)N4Cc5nc(N6CC[C@@H](N)[C@H](OC)C6)ccc5[C@H]4C3)ccc(C#N)c2n1 [Example 11, 5-[(2S,6R)-11-[(3R,4R)-4-amino-3-methoxy-1-piperidyl]-6-methyl-4,7,10-triazatricyclo[7.4.0.02,7]trideca-1(9),10,12-trien-4-yl]-2-deuterio-quinoline-8-carbonitrile] | 8.43 | 7.1
[2H]c1ccc2c(N3C[C@@H](C)N4Cc5nc(N6C[C@H]7C[C@@H]6CN7)ccc5[C@H]4C3)ccc(C#N)c2n1 [Example 17, 2-Deuterio-5-[(2S,6R)-11-[(1R,4R)-2,5-diazabicyclo[2.2.1]heptan-2-yl]-6-methyl-4,7,10-triazatricyclo[7.4.0.02,7]trideca-1(9),10,12-trien-4-yl]quinoline-8-carbonitrile] | 8.57 | 
[2H]c1ccc2c(N3C[C@@H](C)N4Cc5nc(N6CC[C@@H](OC)[C@H](N)C6)ccc5[C@H]4C3)ccc(C#N)c2n1 [Example 15, 5-[(2S,6R)-11-[(3R,4R)-3-amino-4-methoxy-1-piperidyl]-6-methyl-4,7,10-triazatricyclo[7.4.0.02,7]trideca-1(9),10,12-trien-4-yl]-2-deuterio-quinoline-8-carbonitrile] | 8.59 | 
[2H]c1ccc2c(N3C[C@@H](C)N4Cc5nc(N6CC[C@H]7CNC[C@H]76)ccc5[C@H]4C3)ccc(C#N)c2n1 [Example 10, 5-[(2S,6R)-11-[(3aS,6aS)-3,3a,4,5,6,6a-hexahydro-2H-pyrrolo[2,3-c]pyrrol-1-yl]-6-methyl-4,7,10-triazatricyclo[7.4.0.02,7]trideca-1(9),10,12-trien-4-yl]-2-deuterio-quinoline-8-carbonitrile] | 8.72 | 
[2H]c1ccc2c(N3C[C@@H](C)N4Cc5nc(N6CC[C@H](OC)[C@@H](N)C6)ccc5[C@H]4C3)ccc(C#N)c2n1 [Example 14, 5-[(2S,6R)-11-[(3S,4S)-3-amino-4-methoxy-1-piperidyl]-6-methyl-4,7,10-triazatricyclo[7.4.0.02,7]trideca-1(9),10,12-trien-4-yl]-2-deuterio-quinoline-8-carbonitrile] | 8.47 | 

The remaining lines, values ahead:

pIC50 (human TLR7) | CL (h) [1] [mL/min/kg] | SMILES
8.89 | 6.2 | [2H]c1ccc2c(N3C[C@@H](C)N4Cc5nc(N6CC[C@](C)(N)C6)ccc5[C@H]4C3)ccc(C#N)c2n1 [Example 8, 5-[(2S,6R)-11-[(3S)-3-amino-3-methyl-pyrrolidin-1-yl]-6-methyl-4,7,10-triazatricyclo[7.4.0.02,7]trideca-1(9),10,12-trien-4-yl]-2-deuterio-quinoline-8-carbonitrile]
8.70 |  | C[C@@H]1CN(c2ccc(C#N)c3ncccc23)C[C@@H]2c3ccc(N4CCCNCC4)nc3CN12 [Example 20, 5-[(2S,6R)-11-(1,4-diazepan-1-yl)-6-methyl-4,7,10-triazatricyclo[7.4.0.02,7]trideca-1(9),10,12-trien-4-yl]quinoline-8-carbonitrile]
8.06 | 8.9 | CC1(N)CCN(c2ccc3c(n2)CN2CCN(c4ccc(C#N)c5ncccc45)C[C@@H]32)CC1 [Example 4A, 5-[(2R)-11-(4-amino-4-methyl-1-piperidyl)-4,7,10-triazatricyclo[7.4.0.02,7]trideca-1(9),10,12-trien-4-yl]quinoline-8-carbonitrile]
8.55 | 6.2 | [2H]c1ccc2c(N3C[C@@H](C)N4Cc5nc(N6CC[C@@](C)(N)C6)ccc5[C@H]4C3)ccc(C#N)c2n1 [Example 7, 5-[(2S,6R)-11-[(3R)-3-amino-3-methyl-pyrrolidin-1-yl]-6-methyl-4,7,10-triazatricyclo[7.4.0.02,7]trideca-1(9),10,12-trien-4-yl]-2-deuterio-quinoline-8-carbonitrile]
8.96 |  | [2H]c1ccc2c(N3C[C@@H](C)N4Cc5nc(N6CCC(C)(N)CC6)ccc5[C@H]4C3)ccc(C#N)c2n1 [Example 19, 5-[(2S,6R)-11-(4-amino-4-methyl-1-piperidyl)-6-methyl-4,7,10-triazatricyclo[7.4.0.02,7]trideca-1(9),10,12-trien-4-yl]-2-deuterio-quinoline-8-carbonitrile]
8.19 | 6.2 | [2H]c1ccc2c(N3C[C@@H](C)N4Cc5nc(N6CCC7(CNC7)C6)ccc5[C@H]4C3)ccc(C#N)c2n1 [Example 9, 2-Deuterio-5-[(2S,6R)-11-(2,6-diazaspiro[3.4]octan-6-yl)-6-methyl-4,7,10-triazatricyclo[7.4.0.02,7]trideca-1(9),10,12-trien-4-yl]quinoline-8-carbonitrile]
8.89 |  | [2H]c1ccc2c(N3C[C@@H](C)N4Cc5nc(N6CCC7(CC6)CNCCO7)ccc5[C@H]4C3)ccc(C#N)c2n1 [Example 18, 2-Deuterio-5-[(2S,6R)-6-methyl-11-(1-oxa-4,9-diazaspiro[5.5]undecan-9-yl)-4,7,10-triazatricyclo[7.4.0.02,7]trideca-1(9),10,12-trien-4-yl]quinoline-8-carbonitrile]
